These results are taken from US12213485B2, “Synergistic methods of using benzoxaborole compounds and preservative gases as an antimicrobial for crops” (AGROFRESH INC., priority 2016, dated 2025).

In assay [1] the test system is Penicillium expansum (PENIEX) on table grapes. In words: In vivo disease severity on wound-inoculated table grapes, benzoxaborole and CO2 chamber treatment. An excerpt:
(§1) The following experiments were used to determine synergy between benzoxaborole Compounds A, B, and/or C and preservative gases, such as carbon dioxide (CO2) and sulfur dioxide (SO2). Specific rates or any other unique conditions are noted within the corresponding results tables. Each experiment comprised an air-tight 36 liter (L) chamber (Fisher Scientific, P/N: 08-642-23C), fitted with a bulkhead septum port (Swagelok, P/N: SS-400-61, Solon, OH) used for treatment delivery, as well as for monitoring (using needle extraction) carbon dioxide (CO2), sulfur dioxide (SO2), oxygen (O2) or other headspace samples. A variable speed fan (Thermaltake, Mobile Fan II, P/N: A1888, Taipei City, Taiwan) set to low was also used to circulate the headspace atmosphere.
(§2) Similarly, table grape fruits were also tested in vivo. More specifically, 16-20 table grapes per repetition were washed and inoculated with pathogens (as described above for the strawberries). However, an ethanol-sterilized push pin, rather than a T15 screwdriver, was used to wound the stem-end of the grapes. The grapes were inoculated in the wound, and then arranged inside a 1-pint clamshell.
(§3) For treatment, the inoculated agar plates and clamshells containing fruits (e.g., strawberries and grapes) were placed inside a 36 L experimental chamber unit, which was then sealed prior to commencement of compound treatments. The chamber remained sealed throughout the duration of the experiment except for addition of treatment to the chamber, and post-treatment ventilation.
(§4) Benzoxaborole Compound A or Compound B was dissolved in acetone and dispensed onto a 60 mm Whatman #1 filter paper disk using a pipette. The acetone was permitted to evaporate for five minutes before the disk was placed on a watch glass in each chamber.
(§5) A 12% CO2 headspace treatment was then established in the chamber by permitting 10 grams (g) of crushed dry ice placed in a weigh boat in the chamber to evaporate in the sealed chamber. However, the bulkhead port of the chamber was loosened to permit the release of internal pressure. Optionally, a fan was used during the initial hours of treatment (i.e., up to about 6 hours of treatment) to ensure uniform treatment exposure of fruits and plates.
(§6) Untreated controls and CO2 treated chambers contained an acetone-treated disk with similar evaporation for five minutes. CO2 and O2 levels in the chamber were monitored using a handheld gas detector (Dansensor Checkpoint II; P/N 600111, Ringsted, Denmark). Temperature and relative humidity were also monitored within the chamber using data loggers (Onset HOBO; P/N U12-013, Bourne, MA).
(§7) The chamber for all in vitro and in vivo experiments was held at room temperature (i.e., from about 21° C. to about 23° C.) typically for about 3.5 days (i.e., about 84 hours) of treatment exposure. Chambers were then vented. After an additional 2-3 days with the chamber at room temperature, post-treatment radial growth (in mm) of each in vitro pathogen (see Examples 1-7, Tables 1-7) was measured on the inoculated plates using electronic calipers (Mitutoyo, P/N: CD-6-CX, Aurora, IL). In addition, the point of inoculation on fruits was assessed for indication of in vivo disease incidence (e.g., yes or no) and severity of disease incidence (see Examples 8-16, Tables 8-16). Disease severity was rated on a scale ranging from 0 to 4, where “0” indicated no disease severity, “1” indicated minimal disease severity, “2” indicated medium disease severity, “3” indicated high disease severity, and “4” indicated exceptionally high disease severity. […]

Assay [2] has as its system Botrytis cinerea (BOTRCI) on table grapes. Described as above.
Excerpt: as §1, §2, §3, §4, §5, §6, §7

Assay [3] concerns Mucor piriformis (MUCOPI) on strawberries. As to the kind of experiment: In vivo disease severity on wound-inoculated strawberries, benzoxaborole and CO2 chamber treatment.
Excerpt: as §1
For in vivo experiments, eight strawberry fruits per repetition were surface sterilized with a 70% ethanol solution. After sterilization, the strawberries were rinsed twice with deionized water. Each strawberry fruit was wounded using a T15 screwdriver tip to a uniform depth of eight mm (8 mm). Each fruit wound was inoculated with 20 μL of 1×10^5 spores/ml pathogen spore suspension of B. cinerea or M. piriformis. The strawberries were then placed with the stem facing downwards inside a 1-pound strawberry clamshell.
as §3, §4, §5, §6, §7

For the compound `OB1OCc2cc(F)ccc21` [Compound A], the “Colby Calculation” value is listed as 108.2 in assay [1] (Table 16, compound 0.035 mg/L + 12% CO2, Colby equation E=x+y−x*y/100); 115.2 in assay [2] (Table 15, compound 0.035 mg/L + 12% CO2, Colby equation E=x+y−x*y/100); 106.8 in assay [3] (Table 10, compound 0.14 mg/L + 12% CO2, Colby equation E=x+y−x*y/100). The “Growth (Severity, 0 to 4) Cmpd + 12% CO2” value in assay [1] (Table 16, compound 0.035 mg/L + 12% CO2, evaluated 1 day after treatment, fan continuous) worked out at 1.3; in assay [2] (Table 15, compound 0.035 mg/L + 12% CO2, evaluated 1 day after treatment, fan continuous), 0.7; in assay [3] (Table 10, compound 0.14 mg/L + 12% CO2, evaluated 2 days after treatment, fan first 6 hours, >90% R.H.), 0.2. The “Growth (Severity, 0 to 4) Cmpd” value in assay [1] (Table 16, compound alone 0.035 mg/L, evaluated 1 day after treatment, fan continuous) is given as 1.8; in assay [2] (Table 15, compound alone 0.035 mg/L, evaluated 1 day after treatment, fan continuous), 0.9; in assay [3] (Table 10, compound alone 0.14 mg/L, evaluated 2 days after treatment, fan first 6 hours, >90% R.H.) it was 0.5.
